Key:
[1] = cited from earlier work
normal patients = conditions: cited from earlier work
[2] = test system: cynomolgus macaque model of glaucoma; assay: Intraocular pressure in cynomolgus macaque model of glaucoma (laser trabeculoplasty); assay type: in vivo
Description: (§1) Three weeks before the first laser trabeculoplasty, IOP was measured via a tomometer (SPHPR-320-61), once per week for three weeks. The first laser trabeculoplasty was performed in one eye for each macaque. Two weeks later, laser trabeculoplasty was repeated in the same eye (Week 0).
(§2) One week after the second laser trabeculoplasty (Week 1), IOP was measured and retinal nerve fiber layer (RNFL) thickness was measured via optical coherence tomography (OCT; RS3000 Advance, Nidek Co. Ltd., Gamagoori, Japan) (SPHPR- 320-58). The day after group assignment, the eyes were instilled with either vehicle, KR-67607 or brimonidine twice a day. On Day 1, the effect of treatment on IOP over time was measured before treatment and 1, 2, 4, and 8 hrs. after instillation. At the same time, blood samples were obtained. From the effects of dosing observed on Day 1, it was determined that 2 hrs. was a reasonable time time-to-test following instillation for subsequent observations.
(§3) Intraocular pressures were obtained at Weeks 2, 3, 4, 5, 7 and 9. Optical coherence tomography and color fundus photography (CFP) were performed at Weeks 1, 3, 5, 7, and 9 (SPHPR-320-56).
Following measurements at Week 9, G3 macaques was randomized into two groups based on IOP, and the effect of KR-67607 (1.5 mg/mL, 3.0 mg/mL) on IOP was evaluated.

[3] = test system: cynomolgus macaque model of glaucoma; assay: Retinal nerve fiber layer thickness by OCT in cynomolgus macaque model of glaucoma; assay type: in vivo
Description: as §1, §2, §3

[4] = test system: cynomolgus macaque model of glaucoma; assay: Funduscopy in cynomolgus macaque model of glaucoma; assay type: in vivo
Description: as §1, §2, §3

2-hydroxypropyl-β-cyclodextrin [HP-β-CD]
solubility in water [1]: more than 1 g/ml

CC1(C)[C@@H](OC(=O)CCC(=O)O)CC[C@]2(C)[C@H]3C(=O)C=C4[C@@H]5C[C@@](C)(C(=O)O)CC[C@]5(C)CC[C@@]4(C)[C@]3(C)CC[C@@H]12 [carbenoxolone]
reduce intraocular pressure to levels as low as (normal patients): 20%

Brimonidine tartrate [reference compound]
maximum decrease of IOP, contralateral normal eye ([2]; Day 1 dosing, 2 hours after dosing): 4.1±0.9 mmHg | maximum decrease of IOP, glaucomatous eye ([2]; Day 1 dosing, 2 hours after instillation): 19.5±2.7 mmHg | effect on trough IOP value ([2]; glaucomatous eyes, repeated treatment twice a day, brimonidine tartrate 0.1%, KR-67607 1.5 mg/mL): did not significantly affect | maximum decrease of IOP, normal eye ([2]; over weeks): 4.9±0.8 mmHg | number of eyes with RNFL thickness greater than 50% compared to baseline ([3]; Week 9, 6 eyes per group): 1 | RNFL thinning in glaucomatous eyes ([3]; repeated treatment, compared to vehicle-treated (G1)): appeared to inhibit | animals with a lesser degree of cupping compared to G1 ([4]; Week 3 to Week 5): three animals | animals with a small or lesser degree of cupping ([4]; Week 9): one animal
